Test system: Snrpn promoter region and adjacent Dazl locus
Assay: Bisulfite sequencing of the Dazl-Snrpn region in mESCs
Format: cell-based, mouse
Conditions: with target gRNAs
Description: FIGS. 1A-IF depict activation of the Daz1-Snrpn-GFP reporter by dCas9-Tet1. […] FIG. 1B is a schematic representation of targeting the Snrpn promoter region by dCas9-Tet1 with specific gRNAs to erase methylation and activate GFP expression. […] Percentage of GFP positive cells were calculated by flow cytometric analysis of these cells 3-day post infection, and shown as the mean percentages of GFP positive cells±SD of two biological replicates. Note that the percentages of GFP-positive cells are expressed as the fraction of infected Cherry-positive cells. […] Scale bar: 250 um. Right: provides percentages of GFP positive colonies were quantified, and shown as the mean percentages of GFP positive cells±SD of two biological replicates. […] FIG. 1F provides methylation levels of individual CpGs in the Snrpn promoter region and the adjacent Dazl locus. Shown is the mean percentage±SD of two biological replicates.
Demethylation of specific CpGs: To test whether defined sequences could be demethylated, we introduced the dCas9-Tet1 construct in combination with gRNAs to target the Snrpn-GFP reporter inserted into the Dazl promoter (FIG. 1B and FIG. 9A). […] To assess the activation efficiency by dCas9-Tet1 with target gRNAs, we analyzed the cells infected by both viruses using FACS. […] We further analyzed the GFP-positive and -negative populations within infected Cherry-positive cells. […]

dCas9-Tet1: catalytically inactive Cas9 (dCas9) fused through NLS to the Tet1 catalytic domain, SEQ ID NO: 159; lentivirally expressed with gRNAs
methylation status of Snrpn promoter region and adjacent Dazl locus: robust demethylation only in the Snrpn promoter region but not the adjacent Dad locus
